According to PMC12040169 (PLOS Biology, 2025):

Assay: in vitro
Settings: human, hela cells, % viability

| Compound | viability at 28.5 h, 10 µM |
| --- | --- |
| CCOC(=O)Cc1ccc(Nc2cc(-c3ccc(N(C)C)cc3)ncn2)cc1 [CBK090712] | 31.6% |
| CC(=O)Nc1ccc(Nc2cc(-c3ccsc3)ncn2)cc1 [CBK090717] | 96.8% |
| CC(=O)Nc1ccc(Nc2cc(-c3ccc(Cl)cc3)ncn2)cc1 [CBK090720] | 93.6% |
| CC(=O)Nc1ccc(Nc2cc(-c3ccc(CC(C)C)cc3)ncn2)cc1 [CBK090723] | 99.4% |
| COc1cccc(Nc2cc(-c3cccc(N)c3)ncn2)c1OC [CBK090726] | 104% |
| COc1cccc(Nc2cc(-c3ccco3)ncn2)c1OC [CBK090727] | 92.2% |
| COc1cccc(Nc2cc(-c3ccc(CC(C)C)cc3)ncn2)c1 [CBK090745] | 110% |
| Oc1ccc(Nc2cc(-c3ccc(Cl)cc3)ncn2)cc1 [CBK090751] | 94.3% |
| CC(C)Cc1ccc(-c2cc(Nc3ccc(O)cc3)ncn2)cc1 [CBK090754] | 93.6% |
| COc1ccc(Nc2cc(-c3ccco3)ncn2)c(OC)c1 [CBK090761] | 105% |
| COc1ccc(-c2cc(Nc3ccc(OC)cc3OC)ncn2)cc1 [CBK090763] | 46.7% |
| Nc1cccc(-c2cc(Nc3ccc(CCO)cc3)ncn2)c1 [CBK090766] | 104% |
| OCCc1ccc(Nc2cc(-c3ccc4c(c3)OCO4)ncn2)cc1 [CBK090767] | 97.8% |
| OCCc1ccc(Nc2cc(-c3cc4ccccc4s3)ncn2)cc1 [CBK090770] | 103% |
| OCCc1ccc(Nc2cc(-c3ccco3)ncn2)cc1 [CBK090771] | 100% |
| COc1cc(C)c(Nc2cc(-c3cccc(N(C)C)c3)ncn2)cc1OC [CBK090780] | 43.5% |
| COc1cc(C)c(Nc2cc(-c3ccc(C(N)=O)cc3)ncn2)cc1OC [CBK090784] | 98.9% |
| COc1cc(C)c(Nc2cc(-c3ccc(F)c(F)c3)ncn2)cc1OC [CBK090787] | 73.4% |
| COCCNc1cc(-c2ccc(C(C)=O)s2)ncn1 [CBK090791] | 115% |
| COCCNc1cc(-c2ccc(SC)cc2)ncn1 [CBK090795] | 105% |
| COCCNc1cc(-c2ccc(Cl)cc2)ncn1 [CBK090797] | 96.3% |
| COCCNc1cc(-c2ccc(NC(C)=O)cc2)ncn1 [CBK090799] | 97.8% |

| Compound | viability at 28.5 h, 10 µM |
| --- | --- |
| COCCNc1cc(-c2ccc(F)c(F)c2)ncn1 [CBK090800] | 100% |
| CN(C)c1cccc(-c2cc(Nc3ccc4c(c3)OCCO4)ncn2)c1 [CBK090808] | 66.3% |
| COc1ccc(Nc2cc(-c3ccsc3)ncn2)cc1OC [CBK090820] | 97.2% |
| COc1ccc(Nc2cc(-c3ccco3)ncn2)cc1OC [CBK090822] | 99.5% |
| CCn1c2ccccc2c2cc(Nc3cc(-c4cccc5ccccc45)ncn3)ccc21 [CBK090834] | 50.6% |
| CCn1c2ccccc2c2cc(Nc3cc(-c4ccc(OC(F)(F)F)cc4)ncn3)ccc21 [CBK090842] | 87.3% |
| c1nc(Nc2ccc3[nH]ccc3c2)cc(-c2ccc(N3CCOCC3)cc2)n1 [CBK090851] | 91.1% |
| c1ccc2cc(-c3cc(Nc4ccc5[nH]ccc5c4)ncn3)ccc2c1 [CBK090853] | 80.1% |
| FC(F)(F)c1cc(-c2cc(Nc3ccc4[nH]ccc4c3)ncn2)cc(C(F)(F)F)c1 [CBK090855] | 97.9% |
| c1ccc(COc2ccccc2-c2cc(Nc3ccc4[nH]ccc4c3)ncn2)cc1 [CBK090856] | 107% |
| c1ccc(COc2ccc(-c3cc(Nc4ccc5[nH]ccc5c4)ncn3)cc2)cc1 [CBK090857] | 111% |
| c1ccc2sc(-c3cc(Nc4ccc5[nH]ccc5c4)ncn3)cc2c1 [CBK090858] | 82.5% |
| O=[N+]([O-])c1cccc(-c2cc(Nc3ccc4[nH]ccc4c3)ncn2)c1 [CBK090860] | 108% |
| CN(C)c1ccccc1-c1cc(Nc2ccc(C(C)(C)C)cc2)ncn1 [CBK090872] | 95.4% |
| CCNc1cc(-c2ccc(N3CCOCC3)cc2)ncn1 [CBK090876] | 115% |
| CCNc1cc(-c2cccc(N(C)C)c2)ncn1 [CBK090878] | 97.8% |
| CCNc1cc(-c2ccc(Cl)cc2)ncn1 [CBK090880] | 99% |
| CCNc1cc(-c2cncc(OC)c2)ncn1 [CBK090881] | 101% |
| CCNc1cc(-c2ccc(OC)cc2)ncn1 [CBK090883] | 89% |
| CCNc1cc(-c2ccc(CC(C)C)cc2)ncn1 [CBK090884] | 102% |
| Nc1cccc(-c2cc(Nc3ccc(Cl)cc3)ncn2)c1 [CBK090886] | 91.7% |
| CCCCCOc1ccc(Nc2cc(-c3ccccc3N(C)C)ncn2)cc1 [CBK090890] | 81.9% |

| Compound | viability at 28.5 h, 10 µM |
| --- | --- |
| CCCCCOc1ccc(Nc2cc(-c3ccco3)ncn2)cc1 [CBK090892] | 92.6% |
| CN1CCN(c2ccc(-c3cc(NC4CCCCC4)ncn3)cn2)CC1 [CBK090899] | 96.7% |
| CN(C)c1cccc(-c2cc(NC3CCCCC3)ncn2)c1 [CBK090900] | 109% |
| Clc1ccc(-c2cc(NC3CCCCC3)ncn2)cc1 [CBK090902] | 101% |
| Nc1cccc(-c2cc(Nc3cccc(OCc4ccccc4)c3)ncn2)c1 [CBK090915] | 113% |
| c1ccc(Oc2ccc(Nc3cc(-c4ccc(N5CCOCC5)cc4)ncn3)cc2)cc1 [CBK090923] | 83.3% |
| c1ccc(-c2cccc(-c3cc(Nc4ccc(N5CCOCC5)cc4)ncn3)c2)cc1 [CBK090930] | 90.2% |
| COc1cc(-c2cc(Nc3ccc(N(C)C)cc3)ncn2)cc(OC)c1OC [CBK090945] | 38.7% |
| CN(C)c1ccc(Nc2cc(-c3ccco3)ncn2)cc1 [CBK090946] | 90.3% |
| Cc1ccc(S(=O)(=O)Nc2ccc(Nc3cc(-c4ccc(CNC(=O)OC(C)(C)C)cc4)ncn3)cc2)cc1 [CBK090967] | 96.8% |
| Cc1ccc(S(=O)(=O)Nc2ccc(Nc3cc(-c4cccc5oc6ccccc6c45)ncn3)cc2)cc1 [CBK090977] | 91.1% |
| Cc1ccc(S(=O)(=O)Nc2ccc(Nc3cc(-c4cccc([N+](=O)[O-])c4)ncn3)cc2)cc1 [CBK090983] | 109% |
| COc1cncc(-c2cc(Nc3ccc(NS(=O)(=O)c4ccc(C)cc4)cc3)ncn2)c1 [CBK090988] | 94.1% |
| CCN(CCO)c1ccc(Nc2cc(-c3ccsc3)ncn2)cc1 [CBK091000] | 89.5% |
| CCN(CCO)c1ccc(Nc2cc(-c3cccc([N+](=O)[O-])c3)ncn2)cc1 [CBK091002] | 92.2% |
| CN(C)c1cccc(Nc2cc(-c3ccc(CCC(=O)O)cc3)ncn2)c1 [CBK091010] | 93.1% |
| CC(=O)Nc1ccc(-c2cc(Nc3cccc(N(C)C)c3)ncn2)cc1 [CBK091017] | 83.7% |
| COc1ccc(N2CCN(c3cc(-c4cc(C(F)(F)F)cc(C(F)(F)F)c4)ncn3)CC2)cc1OC [CBK091020] | 96.1% |
| COc1ccc(N2CCN(c3cc(-c4ccccc4OCc4ccccc4)ncn3)CC2)cc1OC [CBK091024] | 97.5% |
| COc1ccc(N2CCN(c3cc(-c4ccc(CCC(=O)O)cc4)ncn3)CC2)cc1OC [CBK091030] | 94.1% |
